Laboratory results from US11198691B2, “N-((het)arylmethyl)-heteroaryl-carboxamides compounds as kallikrein inhibitors” (KalVista Pharmaceuticals Limited, priority 2014, dated 2021).

Target: Human FXIa (Homo sapiens (Human), UniProt P03951)
Assay: Determination of the % inhibition for FXIa
Assay type: biochemical
Conditions: 40 μM test compound, 25° C., substrate Z-Gly-Pro-Arg-AFC
Method: Determination of the % inhibition for FXIa
Human FXIa (Enzyme Research Laboratories) was incubated at 25° C. with the fluorogenic substrate Z-Gly-Pro-Arg-AFC and 40 μM of the test compound. Residual enzyme activity (initial rate of reaction) was determined by measuring the change in […].

Sequence of Human FXIa (P03951 388-625): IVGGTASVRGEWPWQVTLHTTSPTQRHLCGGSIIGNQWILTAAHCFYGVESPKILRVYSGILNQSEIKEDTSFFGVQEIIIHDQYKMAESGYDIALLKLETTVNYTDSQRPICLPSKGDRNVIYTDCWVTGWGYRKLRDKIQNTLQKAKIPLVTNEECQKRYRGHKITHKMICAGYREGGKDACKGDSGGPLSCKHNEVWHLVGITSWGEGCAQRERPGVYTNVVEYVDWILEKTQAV
Sequence of Human FXIa (P03951 19-387 partner): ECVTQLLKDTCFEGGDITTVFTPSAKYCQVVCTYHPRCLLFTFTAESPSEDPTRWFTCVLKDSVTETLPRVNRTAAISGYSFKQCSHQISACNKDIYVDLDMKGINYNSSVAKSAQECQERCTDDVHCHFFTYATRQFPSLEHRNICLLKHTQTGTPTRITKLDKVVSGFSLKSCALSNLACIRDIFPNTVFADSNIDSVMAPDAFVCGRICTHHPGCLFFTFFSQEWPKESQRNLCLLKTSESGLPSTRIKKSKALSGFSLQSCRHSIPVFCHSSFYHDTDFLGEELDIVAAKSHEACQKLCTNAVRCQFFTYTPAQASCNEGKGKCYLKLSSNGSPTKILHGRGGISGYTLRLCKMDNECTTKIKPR

Row | Structure (SMILES) | % Inhibition @ 40 μM (human FXIa) [%]
1 | COc1cccc(CNC(=O)c2cn(Cc3ccc(Cn4ccccc4=O)cc3)nc2C2CC2)c1F [Example 52, 3-cyclopropyl-N-[(2-fluoro-3-methoxyphenyl)methyl]-1-({4-[(2-oxopyridin-1-yl)methyl]phenyl}methyl)pyrazole-4-carboxamide] | 1
2 | NC(=O)c1cccc(CNC(=O)c2cn(Cc3ccc(Cn4ccccc4=O)cc3)nc2C2CC2)c1 [Example 49, N-[(3-carbamoylphenyl)methyl]-3-cyclopropyl-1-({4-[(2-oxopyridin-1-yl)methyl]phenyl}methyl)pyrazole-4-carboxamide] | 0
3 | Nc1nn(Cc2ccc(Cn3ccccc3=O)cc2)cc1C(=O)NCc1ccc(OC(F)(F)F)cc1 [Example 58, 3-amino-1-({4-[(2-oxopyridin-1-yl)methyl]phenyl}methyl)-N-{[4-(trifluoromethoxy)phenyl]methyl}pyrazole-4-carboxamide] | 0
